According to a melting point compilation (Tetko et al.):

| Compound | melting point |
| --- | --- |
| Cc1ccc(-c2noc(CC#N)n2)cc1 | 56 to 58 °C |
| COCCNC(C)(C)CO | 44 to 46 °C |
| CC1CNc2ccccc2S1 (stereo unspecified) | 41 to 43 °C |
| O=Cc1cccc2cn[nH]c12 | 121 to 123 °C |
| O=C(CO)N1CCNCC1 | 69 to 71 °C |
| CNC(=O)C1(C(=O)O)CCC1 | 144 to 146 °C |
| NCC(O)c1cc(Cl)c2c(c1)OCCO2 (stereo unspecified) | 131 to 133 °C |
| c1cc2c(s1)CCNC2C1CC1 (stereo unspecified) | 44 to 46 °C |
| N#CCN1CCC(O)CC1 | 76 to 78 °C |
| O=C1NC(=O)N2CCCCC12 (stereo unspecified) | 114 to 116 °C |
| Nc1cc(Cl)c(OCC(F)(F)F)c(Cl)c1 | 89 to 91 °C |
| O=C(O)c1cc2cc(Br)sc2[nH]1 | 164 to 166 °C |
| O=Cc1ccc(Oc2ccc(Cl)cc2[N+](=O)[O-])cc1 | 69 to 71 °C |
| CCc1nc2ccccc2n1CC#N | 104 to 106 °C |
| Nc1nc(-c2ccc(F)cc2)ns1 | 154 to 156 °C |
| O=[N+]([O-])c1ccc(-c2ncon2)cc1 | 166 to 168 °C |
| Cc1ccc(-n2c(S)nnc2-c2ccccn2)c(C)c1 | 234 to 236 °C |
| ClCc1nnc(-c2ccccc2)o1 | 90 to 100 °C |
| CCOC(=O)/C(C#N)=C(\N)C(Cl)(Cl)Cl | 94 to 96 °C |
| Nc1ccnc2ccnn12 | 198 to 200 °C |
| CC(N)c1ccc(N2CCOCC2)cc1 (stereo unspecified) | 61 to 63 °C |
| Nc1ncc(Cc2ccccc2Cl)s1 | 97 to 99 °C |
| N#Cc1ccc2ocnc2c1 | 87 to 89 °C |

| Compound | melting point |
| --- | --- |
| O=C(O)CN1C(=O)CCC1=O | 91 to 93 °C |
| CC(Cl)C(=O)N1CCN(c2ncccn2)CC1 (stereo unspecified) | 96 to 98 °C |
| NCc1ccc(OCCOc2ccc(Cl)cc2)cc1 | 130 to 132 °C |
| O=C(O)Cc1cccc(OCc2cccnc2)c1 | 139 to 141 °C |
| Nc1nc(Cc2ccc(Cl)cc2Cl)cs1 | 96 to 98 °C |
| O=C1CCn2cccc21 | 54 to 56 °C |
| COC(=O)Cc1cc(=O)[nH]c(S)n1 | 185 to 187 °C |
| CNc1nc(-c2ccccc2)no1 | 124 to 126 °C |
| Nc1cc2c(cc1N)OCCCO2 | 122 to 124 °C |
| CC(C)NC(=O)N1CCC(C(=O)O)CC1 | 137 to 139 °C |
| O=C1C(=O)N(Cc2ccc(Br)cc2)c2ccccc21 | 182 to 184 °C |
| O=C(O)CCCNc1nc(-c2ccccc2)cs1 | 155 to 157 °C |
| O=C(CCl)Nc1ccccc1Br | 78 to 80 °C |
| Cc1sc2ncnc(N3CCC(C(=O)O)CC3)c2c1C | 244 to 246 °C |
| Clc1cc2nnc(-c3ccccc3)n2cn1 | 155 to 157 °C |
| Nc1nc(-c2ccc(NC(=O)c3ccccc3)cc2)cs1 | 216 to 218 °C |
| CC1=C(C)C(=O)NC1=O | 113 to 115 °C |
| CC(C)(C)OC(=O)NNC(=O)OC(C)(C)C | 123 to 126 °C |
| O=C1Cc2ncccc2N1 | 189 to 191 °C |
| Sc1nc2cc(Cl)cc(Cl)c2[nH]1 | 376 to 378 °C |
| CC(=O)NCc1ccc(C(=O)N2CCCC2C(=O)O)cc1 (stereo unspecified) | 196 to 198 °C |
| CC(C)(C)OC(=O)NC1CCCN(Cc2ccccc2)C1 (stereo unspecified) | 118 to 120 °C |
| O=C(O)c1ccccc1SCc1ccc(Br)cc1 | 233 to 235 °C |

| Compound | melting point |
| --- | --- |
| CC(C)N1C2CCCC1CC(O)C2 (stereo unspecified) | 59 to 61 °C |
| COc1cc2c(cc1C=O)OC(C)C2 (stereo unspecified) | 78 to 80 °C |
| Cc1cc2sc(N)nc2s1 | 117 to 119 °C |
| CC1(C)CC(C=Cc2ccccn2)=Cc2c1sc(N)c2C#N | 200 to 202 °C |
| Nc1c(O)c(Cl)cc(Cl)c1Cl | 119 to 121 °C |
| CC(C)CN(C(=O)CCl)c1c(N)n(CC(C)C)c(=O)[nH]c1=O | 153 to 155 °C |
| Cc1cc(O)c(C#N)c(C)n1 | 301 to 303 °C |
| NC1CCN(c2ncccn2)CC1 | 82 to 84 °C |
| N#Cc1c(N)sc2c1CCCCCC2 | 104 to 106 °C |
| O=C1CC(c2ccccn2)CN1 (stereo unspecified) | 79 to 81 °C |
| CCc1cc(=O)[nH]c(-c2ccnc(Cl)c2)n1 | 217 to 219 °C |
| O=C1NCCN1CCN1CCNCC1 | 139 to 141 °C |
| CC(C)(C)OC(=O)Nc1ccncc1C=O | 62 to 64 °C |
| COC(=O)c1c(CC(=O)O)[nH]c(C(C)=O)c1C | 205 to 207 °C |
| O=C(Nc1ccccc1CO)c1ccco1 | 95 to 97 °C |
| O=C(O)C(=O)Cc1ccc(Cl)cc1 | 192 to 194 °C |
| O=C(O)c1cccnc1SCc1ccc(Br)cc1 | 236 to 238 °C |
| Cc1sc2nc(CCl)[nH]c(=O)c2c1-c1ccccc1 | 259 to 261 °C |
| N#CSc1ccc(N)cc1 | 43 to 56 °C |
| CCc1n[nH]c(N)n1 | 154 to 156 °C |
| O=c1cc2c(n[nH]1)CCCC2 | 192 to 194 °C |
| Fc1ccc2nc(-c3ccccn3)[nH]c2c1 | 159 to 161 °C |
| COc1ccc(Cn2[nH]cc(Br)c2=N)cc1 | 92 to 94 °C |

Results, then the compound that gave them:

| melting point | Compound |
| --- | --- |
| 49 to 51 °C | CCn1c(C=O)nc2ccccc21 |
| 99 to 101 °C | Cc1cnn(-c2ccc(S(=O)(=O)Cl)cc2F)c1 |
| 250 to 254 °C | Nn1c(S)nnc1-c1ccncc1 |
| 50 to 52 °C | COCCNC(=O)Cc1ccc(N)cc1 |
| 164 to 166 °C | CCOc1cc(/C=C/C(=O)O)ccc1OC |
| 159 to 161 °C | O=C(O)CSc1ccc(Cl)cc1[N+](=O)[O-] |
| 160 to 162 °C | Nc1cc2c(cc1C(=O)O)OCCCO2 |
| 281 to 283 °C | Cc1ccc(S(=O)(=O)Cc2ccc(C(=O)O)cc2)cc1 |
| 201 to 203 °C | Cc1cc(Br)c(O)c(C(=O)O)c1 |
| 256 to 258 °C | Nc1cnc(Br)cc1C(=O)O |
| 212 to 214 °C | O=C(O)c1c[nH]cc1-c1ccccc1 |
| 99 to 101 °C | N#CCC(=O)c1cccc2c1OCCO2 |
| 95 to 97 °C | CC(C)(C)c1cc(NC(=O)CCl)on1 |
| 87 to 89 °C | CC(Oc1ccc(F)cc1Br)C(=O)O (stereo unspecified) |
| 59 to 61 °C | CC(C)(Oc1cccc(Cl)c1)C(=O)O |
| 249 to 251 °C | Nc1cc(F)c([N+](=O)[O-])cc1C(=O)O |
| 80 to 82 °C | O=C(O)CSc1ccccc1F |
| 110 to 112 °C | Cc1nn(-c2ccccc2)c(C)c1CC(=O)O |
| 208 to 210 °C | NC(C(=O)O)c1cccs1 (stereo unspecified) |
| 152 to 154 °C | O=C(O)c1cc([N+](=O)[O-])c(Br)cc1F |
| 289 to 291 °C | O=C(O)c1ccc(S(=O)(=O)Nc2nccs2)cc1 |
| 145 to 147 °C | O=C(O)Cn1c(-c2ccccc2)cc2ccccc21 |
| 143 to 145 °C | O=C(O)c1cc2ccc(C(F)(F)F)cc2[nH]1 |
| 179 to 181 °C | Cc1cc(N)cc2[nH]ncc12 |
| 51 to 53 °C | Cc1ccc(N)c(OCCN(C)C)c1 |
| 219 to 221 °C | Cc1oc(C(=O)O)cc1S(=O)(=O)N1CCCC1 |

| melting point | Compound |
| --- | --- |
| 110 to 112 °C | Cc1cc(-n2c(C)cc(C(=O)CCl)c2C)no1 |
| 142 to 144 °C | CN(C(=O)OC(C)(C)C)c1ccc(C(=N)N)cc1 |
| 57 to 59 °C | O=C(O)CSCc1ccc(Br)cc1F |
| 92 to 94 °C | Nc1ccccc1C(=O)NCCO |
| 119 to 121 °C | CNS(=O)(=O)c1ccccc1N1CCC(N)CC1 |
| 209 to 211 °C | O=C(O)c1ccc(-n2cc(Br)cn2)nn1 |
| 100 to 102 °C | Cc1cccc(Cc2cnc(N)s2)c1 |
| 54 to 56 °C | OCCNCc1ccc(Cl)c(Cl)c1 |
| 278 to 280 °C | COc1ccc(-c2cncc(C(=O)O)c2)cc1 |
| 204 to 206 °C | O=C(O)c1ccc(S(=O)(=O)Cl)cc1Br |
| 155 to 157 °C | Cc1ccc(CC(=O)NO)cc1 |
| 279 to 281 °C | O=C(O)C1CCN(C2=NS(=O)(=O)c3ccccc32)CC1 |
| 59 to 61 °C | Cc1cnoc1N |
| 156 to 158 °C | CC(=O)c1nc2ccc(C)cc2[nH]1 |
| 136 to 138 °C | CC(O)c1nc2cc(Cl)ccc2n1C (stereo unspecified) |
| 105 to 107 °C | CC(C)NC(=O)c1cccc(CN)c1 |
| 180 to 182 °C | COc1ccc(NC(=O)/C=N/O)cc1 |
| 190 to 192 °C | Cc1ccc(Cn2ncc3c(C(=O)O)cc(C)nc32)cc1 |
| 179 to 181 °C | Cc1ccc(-c2csc(NC(=O)CCl)n2)cc1C |
| 133 to 135 °C | O=c1c2ccccc2nnn1CO |
| 201 to 203 °C | COc1ccccc1NS(=O)(=O)c1ccc(C(=O)O)cc1 |
| 103 to 105 °C | CCOC(=O)c1oc2ccc(OC)cc2c1C |
| 229 to 231 °C | NC(=NO)c1cccc(NC(=O)C2CC2)c1 |
| 125 to 127 °C | Nc1ccccc1C(=O)NCc1ccccc1 |
| 168 to 170 °C | Cc1ncc(C(=O)O)c(C(C)C)n1 |
| 147 to 149 °C | CNC(=O)c1ccc(N)cc1Cl |

| melting point | Compound |
| --- | --- |
| 100 to 102 °C | NCc1cccc(NC(=O)c2cccc(F)c2)c1 |
| 192 to 194 °C | Cc1ccc(S(N)(=O)=O)cc1C(N)=O |
| 89 to 91 °C | O=S1(=O)CCCN1c1ccc(Br)cc1F |
| 113 to 115 °C | CN(C)C(=O)c1cc(Oc2ccc(N)cc2)ccn1 |
| 221 to 223 °C | CC(=O)Nc1ccc(O)c(C(=O)O)c1 |
| 69 to 71 °C | CCN(CC)S(=O)(=O)c1cccc(C(=O)NCC(=O)O)c1 |
| 79 to 81 °C | Cc1[nH]c2ccccc2c1CC#N |
| 250 to 252 °C | O=S(=O)(Nc1nc2ccccc2nc1Cl)c1cc(F)ccc1F |
| 202 to 204 °C | CSc1nc(C(=O)O)c2ccccn12 |
| 103 to 105 °C | N#Cc1ccc(S(=O)(=O)N2CCCC2)cc1 |
| 255 to 257 °C | CCOc1cccc2[nH]c(C(=O)O)cc12 |
| 323 to 325 °C | O=C(O)c1cc(-c2cccnc2)nc2ccccc12 |
| 159 to 161 °C | COc1cc(S(=O)(=O)Cl)c(Cl)cc1C(=O)O |
| 239 to 241 °C | COc1cccc2c1OCC(C(=O)O)=C2 |
| 111 to 113 °C | Cc1nn(-c2ccc(Br)cc2)cc1C=O |
| 138 to 140 °C | Nc1ccc(C(=O)N2CCC(CO)CC2)cc1 |
| 232 to 234 °C | CNc1cnnc2ccccc12 |
| 180 to 182 °C | Cc1cc(-c2nnc3ccccn23)ccc1N |
| 173 to 175 °C | O=C1NC(=O)C(c2ccc(F)c(Br)c2)N1 (stereo unspecified) |
| 142 to 144 °C | O=[N+]([O-])c1ccc2c(c1)NCCS2 |
| 109 to 111 °C | Cc1ccccc1N(CC(=O)O)S(C)(=O)=O |
| 183 to 185 °C | O=C(O)c1cc(S(=O)(=O)N2CCOCC2)c(Cl)cc1Cl |
| 52 to 54 °C | Nc1ccnc(Oc2ccccc2)c1 |
| 85 to 87 °C | CCS(=O)(=O)c1ccc(Cl)cc1N |
| 152 to 156 °C | NC(=NO)c1ccc(O)cc1 |
